ChEMBL document CHEMBL1151663, “Further explorations of unnatural alkaloids” (J Nat Prod, 1985)
Calls of active or inactive are those of the source. The calls are words filed in the database; no cut-off is given here.

Columns and labels:
[1] = target: T1, Amine oxidase [flavin-containing] B (Homo sapiens, UniProt P27338); experiment: Activity of human liver MAOB assessed as specific activity at 1 mM; conditions: 1000 µM
T1 sequence (P27338 whole entry): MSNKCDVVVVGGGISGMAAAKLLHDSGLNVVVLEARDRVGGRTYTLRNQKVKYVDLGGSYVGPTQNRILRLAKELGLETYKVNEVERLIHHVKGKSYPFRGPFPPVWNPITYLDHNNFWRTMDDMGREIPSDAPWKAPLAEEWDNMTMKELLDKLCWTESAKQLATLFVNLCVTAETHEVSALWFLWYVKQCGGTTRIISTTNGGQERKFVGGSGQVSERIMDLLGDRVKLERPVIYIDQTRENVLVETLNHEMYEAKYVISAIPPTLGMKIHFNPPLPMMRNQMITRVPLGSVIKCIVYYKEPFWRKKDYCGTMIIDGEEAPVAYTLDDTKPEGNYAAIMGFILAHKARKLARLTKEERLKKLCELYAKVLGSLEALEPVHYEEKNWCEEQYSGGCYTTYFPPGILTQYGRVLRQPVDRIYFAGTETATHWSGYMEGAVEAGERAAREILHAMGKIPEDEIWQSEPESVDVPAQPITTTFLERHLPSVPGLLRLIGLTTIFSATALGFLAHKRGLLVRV

[2] = target: T2, MAO-B (amine oxidase [flavin-containing] B) (Homo sapiens, UniProt P27338); experiment: Inhibition of human liver MAOB at 1 mM relative to MPTP
T2 sequence (P27338 whole entry): T1 sequence (P27338 whole entry)

[3] = species: Mus musculus; experiment: Analgesic activity in mouse by hot plate test; assay type: functional, organism-based
[4] = species: Rattus norvegicus; experiment: Displacement of [3H]colchicine from rat brain tubulin at 25 uM
[5] = Toxicity in intramuscular dosed mouse; assay type: organism-based; conditions: in vivo, im

Row | Compound | Activity [1] [nmol/min/mg] | also measured
1 | CCCCN1CC=C(c2ccccc2)CC1 | < 5 | 
2 | C1=C(c2ccccc2)CCN(CC2CC2)C1 | < 5 | 
3 | CCN1CC=C(c2ccccc2)CC1 | 8.82 | inhibition at 1000 µM [2]: 10.4%
4 | CN1CC=CC(c2ccccc2)C1 (centres undefined) | < 5 | 
5 | CN1CC[C@]2(C)c3cc(O)ccc3N(C)[C@H]12 |  | Activity [3]: inactive
6 | CN1CC=C(c2ccc(Cl)cc2)CC1 | 5.8 | inhibition at 1000 µM [2]: 6.8%
7 | C1=C(c2ccccc2)CCNC1 | 58.6 | inhibition at 1000 µM [2]: 68.8%
8 | CC(C)N1CC=C(c2ccccc2)CC1 | < 5 | 
9 | CC1CN(C)CC=C1c1ccccc1 (centres undefined) | 11.4 | inhibition at 1000 µM [2]: 13.4%
10 | CN1CC=C(c2ccccc2)CC1 | 85.2 | inhibition at 1000 µM [2]: 100%
11 | CCCC(=O)N[C@H]1CCc2cc(OC)c(OC)c(OC)c2-c2ccc(OC)c(=O)cc21 |  | inhibition ([4]; tested as the 2H-labelled form): 79%
12 | CN1CC[C@@]2(C)c3cc(O)ccc3N(C)[C@@H]12 |  | Activity [3]: Active
13 | C/C=C/C(=O)N[C@H]1CCc2cc(OC)c(OC)c(OC)c2-c2ccc(OC)c(=O)cc21 |  | inhibition [4]: 67%; LD50 [5]: 3.4 µmol/kg
14 | C1=C(c2ccccc2)CCN(Cc2ccccc2)C1 | < 5 | 
15 | C=CC(=O)N[C@H]1CCc2cc(OC)c(OC)c(OC)c2-c2ccc(OC)c(=O)cc21 |  | inhibition [4]: 82%; LD50 [5]: 17.4 µmol/kg
16 | CC1=C(c2ccccc2)CCN(C)C1 | 5.3 | inhibition at 1000 µM [2]: 6.2%
17 | COc1cc2c(c(OC)c1OC)-c1ccc(OC)c(=O)cc1[C@@H](NC(C)=O)CC2 [COLCHICINE] |  | LD50 [5]: 3 µmol/kg
18 | CCCN1CC=C(c2ccccc2)CC1 | < 5 | 
19 | CN1CCC=C(c2ccccc2)C1 | < 5 | 
20 | CN1CC=C(c2ccc(O)cc2)CC1 | < 5 | 
21 | C=CCN1CC=C(c2ccccc2)CC1 | < 5 | 
